Measurements from ChEMBL document CHEMBL4689842, “EUbOPEN Chemogenomics Library wave 1” (2021).

Tested on: U2OS
Assay: Incucyte cell viability with U2OS; note: filed as whole numbers so only -1 and 0 and 1 occur
Type: toxicity, cell-based
Conditions: human, 10 µM, compound concentration 10 uM
[1] = 6 h, replicate number 1, timepoint 6 hours
[2] = 6 h, replicate number 2, timepoint 6 hours
[3] = 12 h, replicate number 1, timepoint 12 hours
[4] = 18 h, replicate number 1, timepoint 18 hours
[5] = 24 h, replicate number 1, timepoint 24 hours
[6] = 0 h, replicate number 1, timepoint 0 hours
[7] = 0 h, replicate number 2, timepoint 0 hours
[8] = 12 h, replicate number 2, timepoint 12 hours
[9] = 18 h, replicate number 2, timepoint 18 hours
[10] = 24 h, replicate number 2, timepoint 24 hours

Measured: Growth Rate

S=C(NCCCc1c[nH]cn1)NCCCN(Cc1ccc(Cl)c(Cl)c1)c1ccc(Br)cn1
0: [2] | [3] | [4] | [5]
-1: [1]

Cc1cc(C)c(S(=O)(=O)N(Cc2ccc(-c3cccc(S(C)(=O)=O)c3)cc2)Cc2ccc(C(F)(F)F)o2)c(C)c1
0: [6]
1: [7] | [2] | [3] | [4] | [5]

CCc1cccc(CC)c1NC(=O)c1nn(C)c2c1CCc1cnc(Nc3ccc(C(=O)NC4CCN(C)CC4)cc3OC(F)(F)F)nc1-2
1: [1]
0: [7] | [2] | [3] | [4] | [5]

Cl.Oc1ccc2c3c1O[C@H]1c4[nH]c5c(c4C[C@@]4(O)[C@@H](C2)N(CC2CC2)CC[C@]314)C[C@@]1(O)[C@H]2Cc3ccc(O)c4c3[C@@]1(CCN2CC1CC1)[C@H]5O4
1: [3] | [4] | [5]
0: [6] | [1] | [8] | [9] | [10]

O=C(Nc1cccnn1)N1CCC(=Cc2cccc(Oc3ccc(C(F)(F)F)cn3)c2)CC1
0: [6] | [1] | [3] | [4] | [5]
1: [8]

COc1cc(N2CCN(C)CC2)ccc1Nc1ncc2c(n1)N(C)c1ccccc1C(=O)N2C
0: [6] | [2] | [4] | [5]
1: [7] | [1] | [3]

CCNc1cc(N[C@H]2CC[C@H](O)CC2)nc(Nc2ccc3c(ccn3Cc3ccccc3)c2)n1
0: [6] | [1] | [3] | [4] | [5]

CCOc1cc(C(=O)N2CCC(N3CCN(C)CC3)CC2)ccc1Nc1ncc2c(n1)N(C1CCCC1)c1ccccc1C(=O)N2C
1: [1] | [8]
0: [7] | [3] | [4] | [5]

O=C1N/C(=N/c2ccccc2F)S/C1=C\c1ccc(C(=O)O)cc1
1: [7] | [3] | [4] | [5]
0: [6] | [8] | [9] | [10]

CN([C@@H](Cc1ccc(OS(=O)(=O)c2cccc3cnccc23)cc1)C(=O)N1CCN(c2ccccc2)CC1)S(=O)(=O)c1cccc2cnccc12
0: [7]
1: [1] | [3] | [4] | [5]

O=C(Nc1ccc(Cl)cc1)Nc1cccc(-c2cccc(N3CCCC3)n2)c1
0: [6] | [3] | [4] | [5]

CCn1c(=O)c(-c2ccc(-c3cncs3)cc2Cl)cc2cnc(Nc3ccc(N4CCN(C)CC4)cc3)nc21
0: [3] | [4] | [5]
1: [7] | [8]

Cc1ccc(C(=O)Nc2cccc(C(F)(F)F)c2)cc1Nc1nc(-c2cccnc2)nc2c1cnn2C
0: [1] | [3] | [4] | [5]

CCCS(=O)(=O)c1nc(NC2CC2)cc(-c2ccc3c(ccn3C3CC(C)(C)NC(C)(C)C3)c2)n1
0: [7] | [1] | [3] | [4] | [5]

COC(=N)c1nc2ccc3ncnc(Nc4ccc(OC)cc4F)c3c2s1
0: [3] | [4] | [5]
1: [7] | [2]

CNC(=O)c1ccc(Nc2nc(OC3CCCC3)c3c(-c4ccc5nc(C)oc5c4)c[nH]c3n2)c(OC)c1
0: [4] | [5]
1: [3]

CCN1CCN(Cc2ccc(Nc3ncc(F)c(-c4cc(F)c5nc(C)n(C(C)C)c5c4)n3)nc2)CC1.CS(=O)(=O)O
0: [4] | [5]
1: [7] | [3] | [9]

O=C(Nc1ccc(-c2ccnc(Nc3ccc(N4CCOCC4)cc3)n2)cc1)[C@@H]1CCCN1
1: [3] | [4] | [5]
0: [7]

CCN(CC)S(=O)(=O)Nc1cccc(-c2ccc3c(NC(=O)C4CC4)n[nH]c3c2)c1
0: [6] | [1] | [3] | [4] | [5]

CCc1cccc(CC)c1NC(=O)c1nn(C)c2c1CCc1cnc(Nc3ccc(N4CCN(C)CC4)cc3OC)nc1-2
0: [7] | [3] | [4] | [5]
1: [1]

Cl.O=c1c2cccn2c2ccccc2n1CCCN1CCC(c2ccc(Cl)cc2)CC1
1: [8] | [4] | [5]
0: [7]

CNc1cc(Oc2cc(C(=O)Nc3cc(N4CCN(C)CC4)cc(C(F)(F)F)c3)ccc2C)ncn1
0: [6] | [1] | [3] | [4] | [5]
1: [7]

Cl.O=C(c1ccc(Nc2nccc(-c3cc4ccccc4s3)n2)cc1)N1CCC(N2CCCC2)CC1
0: [7] | [3] | [4] | [5]

COc1ccc(S(=O)(=O)N(CCO)c2ccccc2CN(C)C/C=C/c2ccc(Cl)cc2)cc1.O=P(O)(O)O
0: [6] | [1] | [3] | [4] | [5]
1: [7] | [2] | [8]

Cc1ccc2nc(NCCN)c3ncc(C)n3c2c1.O=C(O)C(F)(F)F.O=C(O)C(F)(F)F
0: [6] | [1] | [3] | [4] | [5]

NC(=O)c1cccc(-c2cc(Nc3ccc(OC(F)(F)F)cc3)ncn2)c1
1: [7] | [1] | [4] | [5]
0: [3] | [9] | [10]

CN1C2CCC1CC(OC(c1ccc(F)cc1)c1ccc(F)cc1)C2.Cl (centres undefined)
0: [2] | [8] | [4] | [5]
1: [3]

CCOC(=O)c1c(C)[nH]c2ccc3c(c12)CN1CCc2cc(OC)ccc2C1O3 (centres undefined)
0: [3] | [4] | [5]
1: [6] | [2]

C=CCn1c(=O)c2cnc(Nc3ccc(N4CCN(C)CC4)cc3)nc2n1-c1cccc(C(C)(C)O)n1 [ADAVOSERTIB]
0: [6] | [1] | [3] | [4] | [5]

COc1cc(N2CCC(N3CCN(C)CC3)CC2)ccc1Nc1ncnc(Nc2ccccc2S(=O)(=O)C(C)C)n1 [ASP-3026]
0: [7] | [1] | [3] | [4] | [5]
1: [2]

O=C(Nc1ccc(-n2nc(-c3cccnc3)cc2C(F)(F)F)cn1)c1ccc(-c2ccccc2)c(F)c1 [BI 2049]
0: [1] | [3] | [4] | [5]
1: [2]

Cn1nc(C(=O)NCc2ccc(C(=O)O)cc2)cc1-c1ccc2[nH]ccc2c1 [BI 4395]
0: [7]
1: [1] | [3] | [4] | [5]

COCC(=O)NC/C=C/c1ccc2ncnc(Nc3ccc(Oc4ccc(C)nc4)c(C)c3)c2c1 [CP-724714]
1: [7] | [1] | [3] | [5]
0: [6] | [4] | [10]

COc1cc2ncnc(Nc3ccc(F)c(Cl)c3)c2cc1NC(=O)/C=C/CN1CCCCC1 [DACOMITINIB ANHYDROUS]
0: [6] | [1] | [3] | [4] | [5]

C=C1/C(=C\C=C2/CCC[C@]3(C)[C@@H]([C@H](C)/C=C/[C@H](C)C(C)C)CC[C@@H]23)C[C@@H](O)C[C@@H]1O [DOXERCALCIFEROL]
0: [6] | [8] | [9] | [5]
1: [3] | [4]

CCCn1c(=O)c2[nH]c(-c3cnn(Cc4cccc(C(F)(F)F)c4)c3)nc2n(CC)c1=O [GS 6201]
0: [6] | [9] | [10]
1: [8] | [4] | [5]

CCn1cc(-c2ccnc3[nH]c(-c4cccc(CN(C)C)c4)cc23)c(-c2ccc(NC(=O)N(C)C)cc2)n1 [GSK-1070916]
0: [1] | [3] | [4] | [5]
1: [6]

CCN1CCN(c2ccc(Nc3cc(N(C)C(=O)Nc4c(Cl)c(OC)cc(OC)c4Cl)ncn3)cc2)CC1 [INFIGRATINIB]
0: [7] | [3] | [4] | [5]
1: [1]

CN1CCC(=C2c3ccccc3CC(=O)c3sccc32)CC1.O=C(O)/C=C/C(=O)O [KETOTIFEN FUMARATE]
1: [6] | [3] | [4] | [5]
0: [2] | [10]

COc1ccc(-c2ccc3c(N4CCOCC4)nc(N4C[C@@H](C)O[C@@H](C)C4)nc3n2)cc1CO [Ku-0063794]
0: [6] | [4] | [5]
1: [1] | [3]

CN(C)C(=O)C(CCN1CCC(O)(c2ccc(Cl)cc2)CC1)(c1ccccc1)c1ccccc1.Cl [LOPERAMIDE HYDROCHLORIDE]
0: [1] | [3] | [4] | [5]

C[C@H]1Oc2cc(cnc2N)-c2c(nn(C)c2C#N)CN(C)C(=O)c2ccc(F)cc21 [LORLATINIB]
1: [7] | [1] | [3] | [4] | [5]

O=C1NC(=O)C(c2cnc3ccccn23)=C1c1cn2c3c(cc(F)cc13)CN(C(=O)N1CCCCC1)CC2 [LY-2090314]
0: [6] | [1] | [3] | [4] | [5]

CCOc1cc2ncc(C#N)c(Nc3ccc(OCc4ccccn4)c(Cl)c3)c2cc1NC(=O)/C=C/CN(C)C [NERATINIB]
1: [2]
0: [7] | [1] | [3] | [4] | [5]

Cc1cn(-c2cc(NC(=O)c3ccc(C)c(Nc4nccc(-c5cccnc5)n4)c3)cc(C(F)(F)F)c2)cn1 [NILOTINIB]
0: [7] | [1] | [3] | [4] | [5]
1: [9] | [10]
